Among the test systems are ACHN; CCRF-CEM; HCT-116; HL-60; K562; Malme-3M; NCI-H226; NCI-H460; SF-268; SF-295; SF-539; SK-MEL-2; UACC-257; UACC-62; OVCAR-3; DU-145; Hs-578T; MDA-N.
Common to all, as to test: DTP human tumour cell line panel, 48 h

The values that follow come from ChEMBL document CHEMBL1201862, “PubChem BioAssay data set” (2004).

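In this assay, cells in 96-well plates receive the compound at five concentrations for 48 hours. Endpoints are linearly interpolated between the surrounding concentrations. The concentration for 50% growth inhibition is given as GI50.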 The source made the active and inactive calls. Cut-off read from the data, not from the text of the source: active = GI50 up to about 1.1 µM and inactive = higher.

As to `COc1nc(N)c(NC(C)=O)c(=O)n1C`, the GI50 with ACHN, in the experiment with CCRF-CEM, in the experiment on HCT-116, with HL-60, in the experiment with K562 and with Malme-3M was > 100 µM (inactive) in each case. For the same compound, the 50% growth inhibitory concentration (GI50) (usually the concentration giving 50% growth inhibition) in the experiment with NCI-H226 was 0.14 µM (active); in the experiment with NCI-H460, > 100 µM (inactive); in the experiment on SF-268, > 100 µM (inactive); in the experiment with SF-295, > 100 µM (inactive); with SF-539, > 100 µM (inactive); in the experiment with SK-MEL-2, > 100 µM (inactive). The GI50 with UACC-257 is > 100 µM (inactive).

In the case of `O=C(NN1C(=O)CSC1c1ccc(Cl)c(Cl)c1)c1ccncc1` (configuration not stated), the GI50 with ACHN is 38.4 µM (inactive); in the experiment with CCRF-CEM, 77.3 µM (inactive); in the experiment with HL-60, 37.8 µM (inactive); in the experiment on K562, 37.8 µM (inactive); in the experiment on Malme-3M, 87.7 µM (inactive); in the experiment with SF-268, 78.3 µM (inactive). For the same compound, the GI50 was 54.3 µM (inactive) in the experiment with SF-295; > 100 µM (inactive) in the experiment with SF-539; 83.8 µM (inactive) with SK-MEL-2; 54.2 µM (inactive) with UACC-257; 31.8 µM (inactive) in the experiment on UACC-62.

For `COc1ccc(-c2cc(N3CCN(c4ccc(Cl)cc4)CC3)c(C#N)c(=O)o2)cc1`, the GI50 in the experiment with ACHN was 6.64 µM (inactive); in the experiment with HCT-116 it was 12.6 µM (inactive); in the experiment on HL-60 it was > 100 µM (inactive); in the experiment with Malme-3M, 7.74 µM (inactive); in the experiment with NCI-H226, 2.52 µM (inactive); in the experiment on NCI-H460, 10.5 µM (inactive). For the same compound, the GI50 in the experiment with SF-268 was 5.38 µM (inactive); in the experiment on SF-295, 4.28 µM (inactive); in the experiment with SF-539, 3.55 µM (inactive); in the experiment on SK-MEL-2, 15.6 µM (inactive); with UACC-257 it was 17.9 µM (inactive).

As for `c1c(N2CCOCC2)s[s+]c1N1CCOCC1`, the GI50 with ACHN, with CCRF-CEM, in the experiment on HCT-116, in the experiment with HL-60, in the experiment on K562 and in the experiment on Malme-3M was > 100 µM (inactive) throughout. Besides, the GI50 is 13.3 µM (inactive) with NCI-H226; > 100 µM (inactive) with NCI-H460; > 100 µM (inactive) in the experiment on SF-268; > 100 µM (inactive) in the experiment on SF-295; > 100 µM (inactive) in the experiment with SF-539; 7.06 µM (inactive) in the experiment with SK-MEL-2. For the same compound, the GI50 in the experiment with UACC-257 and in the experiment on UACC-62 was > 100 µM (inactive) in each case.

As for `COc1ccc(C(=O)C(C(=O)C(=O)NCCCNC(=O)C(=O)C(C(=O)c2ccc(OC)cc2)c2ccc(OC)cc2)c2ccc(OC)cc2)cc1` (configuration not stated), the GI50 with CCRF-CEM, in the experiment with HCT-116, in the experiment with HL-60, in the experiment on K562, in the experiment with Malme-3M and with NCI-H226 was > 100 µM (inactive) in each case. Moreover, the GI50 with NCI-H460, with OVCAR-3, in the experiment with SF-268, with SF-295, with SF-539 and in the experiment with SK-MEL-2 was > 100 µM (inactive) each time. The GI50 in the experiment on UACC-257 and in the experiment on UACC-62 was > 100 µM (inactive) in each case.

On to `COC1(OC)CCC2(C)OC(c3ccccc3)C1O2` (configuration not stated), for which the GI50 in the experiment on ACHN, in the experiment on CCRF-CEM, with HCT-116, with HL-60, with K562 and with Malme-3M was > 100 µM (inactive) in each case. In addition, the GI50 in the experiment with NCI-H226, in the experiment with NCI-H460, in the experiment with OVCAR-3, with SF-268, with SF-295 and with SF-539 was > 100 µM (inactive) in each case. For the same compound, the GI50 with SK-MEL-2, in the experiment on UACC-257 and with UACC-62 was > 100 µM (inactive) in each case.

For `CSCCCCCCCCCCOc1ccc(C=C2C(=C(C#N)C#N)c3ccccc3C2=C(C#N)C#N)cc1`, the GI50 is 13.1 µM (inactive) with ACHN; 1.32 µM (inactive) with CCRF-CEM; 15.6 µM (inactive) with DU-145; 16.9 µM (inactive) in the experiment on HCT-116; 0.0962 µM (active) with HL-60; 20.5 µM (inactive) with Hs-578T. Moreover, the GI50 in the experiment with K562 is 30.6 µM (inactive); in the experiment on MDA-N, 18.3 µM (inactive); in the experiment on NCI-H226 it was 30.4 µM (inactive); in the experiment on NCI-H460, 17.7 µM (inactive); in the experiment on OVCAR-3 it was 16.4 µM (inactive); with SF-268, 17.9 µM (inactive). For the same compound, the GI50 in the experiment with SF-295 is 17.2 µM (inactive); in the experiment on SF-539, 18 µM (inactive); in the experiment with SK-MEL-2, 20.1 µM (inactive); in the experiment with UACC-257, 18.9 µM (inactive).

For the compound `COC(=N)c1ncn(Cc2ccccc2)c1N`, the GI50 in the experiment with ACHN, with CCRF-CEM, in the experiment on DU-145, with HCT-116, in the experiment on Hs-578T and with K562 was > 100 µM (inactive) each time. The GI50 in the experiment on MDA-N, in the experiment with Malme-3M, with NCI-H226, in the experiment with NCI-H460, in the experiment on OVCAR-3 and in the experiment on SF-268 was > 100 µM (inactive) throughout. Moreover, the GI50 with SF-295, with SF-539, with SK-MEL-2, with UACC-257 and with UACC-62 was > 100 µM (inactive) throughout.

`CCC1(C)N=c2c(ncn2N=C(C)C)=C(C(N)=O)N1` (configuration not stated): the GI50 with ACHN, in the experiment with CCRF-CEM, in the experiment on DU-145, with HCT-116, in the experiment on HL-60 and with Hs-578T was > 100 µM (inactive) throughout. For the same compound, the GI50 in the experiment with K562, with MDA-N, in the experiment on Malme-3M, with NCI-H226, with NCI-H460 and in the experiment on OVCAR-3 was > 100 µM (inactive) throughout. The GI50 in the experiment on SF-268, in the experiment on SF-295, with SF-539, in the experiment with UACC-257 and in the experiment on UACC-62 was > 100 µM (inactive) each time.

Turning to `COC(=O)[C@]1(C)CCCC2(C)C1CC[C@H]1C=C(C)[C@H]3CCC12C3` (some centres not stated), the GI50 in the experiment on ACHN was > 100 µM (inactive); in the experiment on CCRF-CEM, > 100 µM (inactive); in the experiment with HCT-116, 40.3 µM (inactive); in the experiment on HL-60, 86.1 µM (inactive); in the experiment on K562 it was > 100 µM (inactive); in the experiment with Malme-3M it was > 100 µM (inactive). Moreover, the GI50 in the experiment with NCI-H226 is > 100 µM (inactive); in the experiment with NCI-H460, 44.5 µM (inactive); with OVCAR-3, > 100 µM (inactive); with SF-268 it was > 100 µM (inactive); with SF-295, > 100 µM (inactive); in the experiment on SF-539 it was > 100 µM (inactive). The GI50 is 37.5 µM (inactive) with UACC-257 and > 100 µM (inactive) in the experiment with UACC-62.
